The conditions of data set [1]: cited from earlier work.
For data set [2] the following is noted: co-administration with ketoconazole; cited from earlier work.
The target in data set [3] is T1, 5-HT3 receptor subtypes derived from N1E-115 cells (Mus musculus, UniProt P23979).
T1 construct: host or cells: N1E-115 cells
T1 sequence (P23979 24-489): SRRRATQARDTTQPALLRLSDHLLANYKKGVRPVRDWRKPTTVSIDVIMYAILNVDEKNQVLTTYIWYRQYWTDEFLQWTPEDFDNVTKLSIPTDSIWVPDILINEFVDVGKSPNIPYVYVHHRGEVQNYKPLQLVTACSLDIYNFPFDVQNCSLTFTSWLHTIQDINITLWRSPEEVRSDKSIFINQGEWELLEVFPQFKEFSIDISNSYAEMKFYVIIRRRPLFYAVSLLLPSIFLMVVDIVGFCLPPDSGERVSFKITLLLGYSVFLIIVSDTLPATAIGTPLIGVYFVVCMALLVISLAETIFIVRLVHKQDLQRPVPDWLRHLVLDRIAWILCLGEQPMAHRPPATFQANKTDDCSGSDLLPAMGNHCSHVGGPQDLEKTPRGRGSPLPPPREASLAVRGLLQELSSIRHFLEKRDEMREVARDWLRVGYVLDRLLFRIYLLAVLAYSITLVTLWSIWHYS
Nature of the data set: 5-HT3 receptor radioligand binding (Cerep). The note with it: IC50 for binding to 5-HT3 sites, inhibition of specific radioligand binding. The procedure:
Following incubation with the appropriate ligands, the preparations are rapidly filtered under vacuum through GF/B glass fiber filters and washed with ice-cold buffer using a Brandel or Packard cell harvester.
(§1) Specific radioligand binding to the receptor is defined as the difference between total binding and nonspecific binding determined in the presence of an excess of unlabeled ligand. Results are expressed as a percent inhibition of specific binding obtained in the presence of the compounds.

Data set [4] addresses T2, 5-HT4 receptor subtypes derived from guinea-pig striata (Cavia porcellus, UniProt O70528).
T2 construct: tissue Cerep, Celle l'Evescault, France; host or cells: guinea-pig striata
The data set can be described thus: 5-HT4 receptor radioligand binding (Cerep). As to conditions: IC50 for binding to 5-HT4 sites, inhibition of specific radioligand binding. The procedure:
Following incubation with the appropriate ligands, the preparations are raidly filtered under vacuum through GF/B glass fiber filters and washed with ice-cold buffer using a Brandel or Packard cell harvester.
as §1

Data set [5] has as its target T3, cloned human serotonin 5-HT1A receptor (Homo sapiens, UniProt P08908).
T3 construct: host or cells: NIH 3T3 cells
T3 sequence (P08908 1-422): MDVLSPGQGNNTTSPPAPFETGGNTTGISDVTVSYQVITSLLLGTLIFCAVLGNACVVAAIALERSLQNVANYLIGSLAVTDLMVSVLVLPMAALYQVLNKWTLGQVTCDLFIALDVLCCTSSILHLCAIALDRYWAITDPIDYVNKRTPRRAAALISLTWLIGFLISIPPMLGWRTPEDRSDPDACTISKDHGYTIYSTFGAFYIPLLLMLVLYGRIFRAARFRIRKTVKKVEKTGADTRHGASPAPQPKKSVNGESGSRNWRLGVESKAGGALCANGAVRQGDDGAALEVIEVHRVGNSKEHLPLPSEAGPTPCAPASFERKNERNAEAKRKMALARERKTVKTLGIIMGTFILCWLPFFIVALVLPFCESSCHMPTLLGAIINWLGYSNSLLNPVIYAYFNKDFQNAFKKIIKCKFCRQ
The data set can be described thus: R-SAT 5-HT1A receptor activity (agonist/antagonist). The note with it: antagonist activity against 2 μM 5-HT, NIH 3T3 cells, read-out: Calculated IC50 at 5-HT1A receptor. Type of data set: cell-based. The procedure: The assay involves co-expression of a marker enzyme, β-galactosidase, with the serotonin receptor of interest. Ligands stimulate proliferation of cells that express the receptor and, therefore, the marker. Ligand-induced effects can be determined by assay of the marker.
NIH 3T3 cells are incubated, plated, and then transfected using human 5-HT1A serotonin receptors, pSV-β-galactosidase, and salmon sperm DNA. The medium is changed one day later, and after 2 days, aliquots of the trypsinized cells are placed in wells of a 96 well plate. After five days in culture in the presence of the ligands, the levels of β-galactosidase are measured. The cells are then rinsed and incubated with the substrate, […] β-D-galactopyranoside.
Data from antagonist inhibition of the compounds are fit to the equation:
Response Max Response +(Min Response)/1+(Ligand Conc/[…])

T2 sequence (O70528 whole entry): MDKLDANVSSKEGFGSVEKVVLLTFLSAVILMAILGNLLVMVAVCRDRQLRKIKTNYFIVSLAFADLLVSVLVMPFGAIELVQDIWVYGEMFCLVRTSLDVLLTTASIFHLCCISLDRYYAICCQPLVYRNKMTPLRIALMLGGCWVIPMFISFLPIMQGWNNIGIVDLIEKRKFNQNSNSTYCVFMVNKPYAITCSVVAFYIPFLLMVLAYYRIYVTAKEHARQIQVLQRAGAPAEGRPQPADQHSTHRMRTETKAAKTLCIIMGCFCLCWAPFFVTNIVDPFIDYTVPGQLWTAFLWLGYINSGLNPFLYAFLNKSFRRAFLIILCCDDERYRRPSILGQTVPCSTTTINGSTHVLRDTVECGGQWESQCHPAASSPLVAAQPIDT

`COc1cc(N)c(Cl)cc1C(=O)NC1CCN(CCCOc2ccc(F)cc2)CC1OC` (racemic) [(±) Cisapride, cis-4-amino-5-chloro-N-[1-[3-(4-fluorophenoxy)propyl]-3-methoxy-4-piperidinyl]-2-methoxybenamide]: the “Absorption after oral administration” value in data set [1] (humans) was “almost completely absorbed”. Further, the “Fraction of dose metabolized” value in data set [1] (humans, mainly oxidative N-dealkylation or aromatic hydroxylation) is given as “More than 90%”. Moreover, the Bioavailability in data set [1] (oral administration to humans, rapid first-pass metabolism in the liver) was 40-50%. Moreover, in data set [2], the “Increase of steady-state plasma levels” value is given as 8 fold.

Turning to `COc1cc(N)c(Cl)cc1C(=O)NC1CCNCC1OC` (racemic) [(±) Norcisapride, 4-amino-5-chloro-N-(3-methoxy-4-piperidinyl)-2-methoxybenzamide], the 50% inhibitory concentration (IC50) – broadly, the concentration needed to halve the response being measured – in data set [3] is 8.2 nM; in data set [4] it was 686 nM; in data set [5] it was 7480 nM.

`COc1cc(N)c(Cl)cc1C(=O)NC1CCNCC1OC` (single isomer, unassigned; (+)) [(+) Norcisapride, 4-amino-5-chloro-N-(3-methoxy-4-piperidinyl)-2-methoxybenzamide]: the IC50 in data set [3] was 4.5 nM; in data set [4], 331 nM; in data set [5] it was 5.4 nM.

As to `COc1cc(N)c(Cl)cc1C(=O)NC1CCNCC1OC` (single isomer, unassigned; (-)) [(−) Norcisapride, 4-amino-5-chloro-N-(3-methoxy-4-piperidinyl)-2-methoxybenzamide], the IC50 in data set [3] was 30.4 nM; in data set [4] it was 1350 nM; in data set [5], 1300 nM.
